Test results taken from ChEMBL document CHEMBL3774317, “Design and synthesis of novel tamoxifen analogues that avoid CYP2D6 metabolism” (Eur J Med Chem, 2016).

Tests used:
Format in all cases: functional
K562 = assay: Cytotoxicity against human K562 cells assessed as cell growth at 50 nM after 48 hrs by SRB assay; conditions: K562, 48 h, read-out: Activity
[1] = Cytotoxicity against human SW620 cells assessed as cell growth at 50 nM after 48 hrs by SRB assay; conditions: SW-620, 48 h, read-out: Activity
[2] = Cytotoxicity against human SF539 cells assessed as cell growth at 50 nM after 48 hrs by SRB assay; conditions: SF-539, 48 h, read-out: Activity
[3] = Cytotoxicity against human SNB19 cells assessed as cell growth at 50 nM after 48 hrs by SRB assay; conditions: SNB-19, 48 h, read-out: Activity
[4] = Cytotoxicity against human NCI-ADR-RES cells assessed as cell growth at 50 nM after 48 hrs by SRB assay; conditions: read-out: Activity
SR [5] = assay: Cytotoxicity against human SR cells assessed as cell growth at 0.5 uM after 48 hrs by SRB assay; conditions: read-out: Activity
[6] = Cytotoxicity against human RXF393 cells assessed as cell growth at 50 uM after 48 hrs by SRB assay; conditions: RXF 393, 48 h, read-out: Activity
MDA-MB-435 = assay: Cytotoxicity against human MDA-MB-435 cells assessed as cell growth at 0.5 uM after 48 hrs by SRB assay; conditions: MDA-MB-435, 48 h, read-out: Activity
[7] = Cytotoxicity against human OVCAR3 cells assessed as cell growth at 0.5 uM after 48 hrs by SRB assay; conditions: OVCAR-3, 48 h, read-out: Activity
[8] = Cytotoxicity against human Hs 578T cells assessed as cell growth at 0.5 uM after 48 hrs by SRB assay; conditions: read-out: Activity
NCI-H460 = assay: Cytotoxicity against human NCI-H460 cells assessed as cell growth at 5 uM after 48 hrs by SRB assay; conditions: NCI-H460, 48 h, read-out: Activity
NCI-H226 = assay: Cytotoxicity against human NCI-H226 cells assessed as cell growth at 5 nM after 48 hrs by SRB assay; conditions: NCI-H226, 48 h, read-out: Activity
HT-29 [9] = assay: Cytotoxicity against human HT-29 cells assessed as cell growth at 5 nM after 48 hrs by SRB assay; conditions: HT-29, 48 h, read-out: Activity
KM12 [10] = assay: Cytotoxicity against human KM12 cells assessed as cell growth at 5 nM after 48 hrs by SRB assay; conditions: KM12, 48 h, read-out: Activity
[11] = Cytotoxicity against human OVCAR3 cells assessed as cell growth at 5 uM after 48 hrs by SRB assay; conditions: OVCAR-3, 48 h, read-out: Activity
SR [12] = assay: Cytotoxicity against human SR cells assessed as cell growth at 50 uM after 48 hrs by SRB assay; conditions: read-out: Activity
[13] = Cytotoxicity against human HCC2998 cells assessed as cell growth at 50 uM after 48 hrs by SRB assay; conditions: HCC 2998, 48 h, read-out: Activity
HT-29 [14] = assay: Cytotoxicity against human HT-29 cells assessed as cell growth at 50 uM after 48 hrs by SRB assay; conditions: HT-29, 48 h, read-out: Activity
[15] = Cytotoxicity against human SF268 cells assessed as cell growth at 10^-7 M after 48 hrs by SRB assay; conditions: SF-268, 48 h, read-out: Activity
[16] = Cytotoxicity against human HOP62 cells assessed as cell growth at 10^-6 M after 48 hrs by SRB assay; conditions: HOP-62, 48 h, read-out: Activity
[17] = Cytotoxicity against human OVCAR8 cells assessed as cell growth at 10^-4 M after 48 hrs by SRB assay; conditions: OVCAR-8, 48 h, read-out: Activity
MCF7 = assay: Cytotoxicity against human MCF7 cells assessed as cell growth at 10^-4 M after 48 hrs by SRB assay; conditions: MCF7, 48 h, read-out: Activity
SK-MEL-5 = assay: Cytotoxicity against human SK-MEL-5 cells assessed as cell growth at 10^-6 M after 48 hrs by SRB assay; conditions: SK-MEL-5, 48 h, read-out: Activity
SN12C = assay: Cytotoxicity against human SN12C cells assessed as cell growth at 10^-6 M after 48 hrs by SRB assay; conditions: read-out: Activity
MDA-MB-468 = assay: Cytotoxicity against human MDA-MB-468 cells assessed as cell growth at 10^-6 M after 48 hrs by SRB assay; conditions: MDA-MB-468, 48 h, read-out: Activity
[18] = Cytotoxicity against human SNB75 cells assessed as cell growth at 10^-5 M after 48 hrs by SRB assay; conditions: SNB-75, 48 h, read-out: Activity
NCI-H522 [19] = assay: Cytotoxicity against human NCI-H522 cells assessed as cell growth at 10^-8 M after 48 hrs by SRB assay; conditions: NCI-H522, 48 h, read-out: Activity
[20] = Cytotoxicity against human HCT15 cells assessed as cell growth at 10^-8 M after 48 hrs by SRB assay; conditions: HCT-15, 48 h, read-out: Activity
[21] = Cytotoxicity against human SF295 cells assessed as cell growth at 10^-8 M after 48 hrs by SRB assay; conditions: SF-295, 48 h, read-out: Activity
Malme-3M = assay: Cytotoxicity against human MALME-3M cells assessed as cell growth at 10^-8 M after 48 hrs by SRB assay; conditions: read-out: Activity
SK-MEL-2 = assay: Cytotoxicity against human SK-MEL-2 cells assessed as cell growth at 10^-8 M after 48 hrs by SRB assay; conditions: SK-MEL-2, 48 h, read-out: Activity
[22] = Cytotoxicity against human UACC62 cells assessed as cell growth at 10^-8 M after 48 hrs by SRB assay; conditions: UACC-62, 48 h, read-out: Activity
[23] = Cytotoxicity against human UO31 cells assessed as cell growth at 10^-8 M after 48 hrs by SRB assay; conditions: UO-31, 48 h, read-out: Activity
[24] = Cytotoxicity against human MOLT4 cells assessed as cell growth at 10^-7 M after 48 hrs by SRB assay; conditions: MOLT-4, 48 h, read-out: Activity
[25] = Cytotoxicity against human RPMI8226 cells assessed as cell growth at 10^-7 M after 48 hrs by SRB assay; conditions: RPMI-8226, 48 h, read-out: Activity
NCI-H522 [26] = assay: Cytotoxicity against human NCI-H522 cells assessed as cell growth at 10^-4 M after 48 hrs by SRB assay; conditions: NCI-H522, 48 h, read-out: Activity
KM12 [27] = assay: Cytotoxicity against human KM12 cells assessed as cell growth at 10^-4 M after 48 hrs by SRB assay; conditions: KM12, 48 h, read-out: Activity
[28] = Cytotoxicity against human SW620 cells assessed as cell growth at 10^-4 M after 48 hrs by SRB assay; conditions: SW-620, 48 h, read-out: Activity
[29] = Cytotoxicity against human LOXIMVI cells assessed as cell growth at 10^-4 M after 48 hrs by SRB assay; conditions: LOX IMVI, read-out: Activity
[30] = Cytotoxicity against human IGROV1 cells assessed as cell growth at 10^-4 M after 48 hrs by SRB assay; conditions: IGROV-1, 48 h, read-out: Activity

With `CCCCCCCCCC(=O)Oc1ccc(/C(=C(/C)c2ccccc2)c2ccc(OCCN3CCCC3)cc2)cc1` the growth at 0.05 µM (K562) was 95%, the growth at 0.05 µM [1] was 97% and the growth at 0.05 µM [2] was 98%. The growth at 0.05 µM [3] was 98%, the growth at 0.05 µM [4] was 96% and the growth at 0.5 µM (SR [5]) was 60%. For the same molecule, the growth at 50 µM [6] was -89%, the growth at 0.5 µM (MDA-MB-435) was 67% and the growth at 0.5 µM [7] was 86%. The growth at 0.5 µM [8] was 75%, the growth at 5 µM (NCI-H460) was 92% and the growth at 0.005 µM (NCI-H226) was 93%. The growth at 0.005 µM (HT-29 [9]) was 101%, the growth at 0.005 µM (KM12 [10]) was 101% and the growth at 5 µM [11] was 86%. The growth at 50 µM (SR [12]) was -66%, the growth at 50 µM [13] was -77% and the growth at 50 µM (HT-29 [14]) was -89%.

`C/C(=C(/c1ccc(O)cc1)c1ccc(OCCN2CCCC2)cc1)c1ccccc1` showed a growth at 0.1 µM [15] of 94%, a growth at 1 µM [16] of 98% and a growth at 100 µM [17] of -61%. The growth at 100 µM (MCF7) was -66%, the growth at 1 µM (SK-MEL-5) was 96% and the growth at 1 µM (SN12C) was 101%. For the same molecule, the growth at 1 µM (MDA-MB-468) was 84%, the growth at 10 µM [18] was 23% and the growth at 0.01 µM (NCI-H522 [19]) was 88%. It also gave a growth at 0.01 µM [20] of 92%, a growth at 0.01 µM [21] of 87% and a growth at 0.01 µM (Malme-3M) of 99%. The growth at 0.01 µM (SK-MEL-2) was 97%, the growth at 0.01 µM [22] was 99% and the growth at 0.01 µM [23] was 93%. It also gave a growth at 0.1 µM [24] of 101%, a growth at 0.1 µM [25] of 103% and a growth at 100 µM (NCI-H522 [26]) of -82%. For the same molecule, the growth at 100 µM (KM12 [27]) was -89%, the growth at 100 µM [28] was -92% and the growth at 100 µM [29] was -93%. For the same molecule, the growth at 100 µM [30] was -54%.
